# Test results published in patent EP0408284B1, “Amylin for treatment of bone disorders” (AMYLIN PHARMACEUTICALS, INC., priority 1989, dated 1996).
# Read-outs that look alike come from different tables or passages of the source. Ends that are not written are not given here.
# How the values were obtained:
# [1] = tested on: disaggregated rat osteoclasts
# Experimental: (§1) Bone resorption assay: Human cortical bone slices were prepared as previously described (Zaidi et al. Quart J.Exp. Physiol. 73, p. 471 (1988). The slices were then cut into pieces, each measuring about 3mm². Newborn Wistar rats were killed by decapitation and their femora and tibiae removed. The bones were freed of adherent soft tissues and cut across their epiphyses in Medium 199 with foetal calf serum (FCS, 10%, v/v) and antibiotics (Flow Laboratories, UK, Ltd.). Osteoclasts were mechanically disaggregated by curetting the bones of each rat with a scalpel blade into Medium 199 (1 ml) and agitating the suspension with a pipette. Large fragments were allowed to settle for 10 seconds, before the supernatant was dropped onto 30 to 35 bone slices placed in a well of a Sterilin 100 18mm multiwell dish. Following incubation (37°C; 15 minutes), the bone slices were removed, washed gently in Minimal Essential Medium with FCS (10%, v/v) (MEM/FCS) and placed in separate wells (each well contained 5-6 slices and 900 µl MEM/FCS). […] After further incubation (37°C, 10% humidified CO₂, 10 minutes), 100 µl of MEM/FCS containing the test substance was added. Finally, bone slices were incubated overnight (37°C, 10% humidified CO₂, 18 hours) and quantified in terms of cell numbers and bone resorption. After fixation in glutaraldehyde, cells were stained with toluidine blue and examined by transmitted light microscopy. In order to rule out toxic effects, osteoclasts were counted on three slices for every variable and their numbers were then compared on hormone-treated and control bone slices. The slices were bleached by immersion in sodium hypochlorite solution (10% v/v) for 30 minutes and dehydrated in aqueous ethanol (80% v/v). The slices were then sputter coated with gold, randomized and examined in a Cambridge 360 Scanning Electron Microscope (Cambridge Instruments, Cambridgeshire). Osteoclastic excavations, each defined by a continuous border within an area of unresorbed bone were counted. The area of bone surface resorbed was calculated by tracing the outline of the concavities into an image processor (Sight Systems, Newbury, Berks).
# [2] = in vivo rat hypocalcaemia assay: plasma calcium after intravenous injection of the peptide; parameters: species or system male Wistar rats
# Experimental: The effects of amylin and deamidated amylin on calcium metabolism in the rat and rabbit were investigated by two different methods. First, in vivo hypocalcaemic activity was assessed by measuring plasma calcium levels after injection of the peptide in 50 g rats. Next, in vitro resorption of cortical bone by disaggregated rat osteoclasts was quantified by scanning electron microscopy together with image analysis. […] Both are inhibitors of osteoclastic resorption and lower plasma calcium in both rats and rabbits. Described below are experiments which show the biological activity of both amylin and deamidated amylin using the in vivo rat hypocalcaemia assay and an in vitro bone resorption system. In addition, the effect on plasma calcium levels of infusion of high doses of amylin into rabbits is described.
# Animal experiments: Fifty gram male Wistar rats (mean weight ± SEM, 51 ± 1.2g, Charles Rivers, Margate, Kent) were fasted overnight with ad lib access to water and used for experiments. […] Following injection the animals were bled into heparinized syringes via the dorsal aorta under light ether anaesthesia. In another set of experiments, rabbits (mean weight ± SEM, 3.2 ± 0.3 kg) were restrained in wooden cages and sedated with Hypnorm (1 ml) (Janssen, Denmark). […] Plasma was separated and calcium levels measured by DC Plasma Emission Spectrophotometry.
# [3] = plasma calcium during and after continuous intravenous infusion into rabbits; format: in vivo; conditions: infusion of 500 pmol per minute over 90 minutes
# Experimental: Animal experiments: Fifty gram male Wistar rats (mean weight ± SEM, 51 ± 1.2g, Charles Rivers, Margate, Kent) were fasted overnight with ad lib access to water and used for experiments. […] Following injection the animals were bled into heparinized syringes via the dorsal aorta under light ether anaesthesia. In another set of experiments, rabbits (mean weight ± SEM, 3.2 ± 0.3 kg) were restrained in wooden cages and sedated with Hypnorm (1 ml) (Janssen, Denmark). They were infused with saline or amylin (500 pmol min ⁻¹) for 90 minutes via a 21 G needle inserted into the lateral ear vein. The needle was connected to a pump via a polythene cannula (Portex, 00, Hythe, Kent). Blood samples were taken at timed intervals before and after the infusion was commenced. Plasma was separated and calcium levels measured by DC Plasma Emission Spectrophotometry.
# [4] = plasma calcium after intravenous infusion in patients with Paget's disease; format: in vivo
# Experimental: Furthermore, 1 hour of intravenous infusion of 150 pmol/Kg/min amylin into four human patients with Paget's disease reduced plasma calcium by amounts ranging from […].
# isolated osteoclasts = experiment: second messenger pathways and functional responses of isolated osteoclasts; format: cell-based
# Excerpt: Thus, it appears that osteoclast activity may be restrained via two receptor types; calcitonin acts at both while amylin acts mainly via only one, reducing motility, reducing resorption and probably acting via the second messenger cAMP (Zaidi et. al. 1990, J. Endocrinol 126, 473-481).
# [5] = tested on: disaggregated rat osteoclasts; experiment: bone resorption assay: isolated osteoclasts on human cortical bone slices, scanning electron microscopy with image analysis
# Experimental: as §1
# [6] = peptides not all compared in the same assay
Molecule,cell number or viability [1],"effect on plasma calcium ([2]; 50 g rats, intravenous injection of 500 pmol)","responses (hypocalcaemic and anti-resorptive activity) compared with calcitonin and CGRP ([2]; summary covering the in vivo and the in vitro tests, order: asu1-7-eel CT>human CT>amylin/amylin amide>CGRP)",effect on plasma calcium [3],time calcium levels continued to fall after the end of the infusion [3],time until a trend to lower plasma calcium was apparent [3],potency compared with human calcitonin [4],cell retraction (isolated osteoclasts),cytosolic calcium (isolated osteoclasts),osteoclast motility (isolated osteoclasts),"total area of bone resorbed by isolated osteoclasts ([5]; 18 hours incubation, concentration-dependent)",cell number or viability ([5]; osteoclasts counted on hormone-treated and control bone slices),"potency compared with CGRP [5, 6]","potency compared with human calcitonin [5, 6]"
CC[C@H](C)[C@H](NC(=O)[C@H](C)NC(=O)CNC(=O)[C@H](Cc1ccccc1)NC(=O)[C@H](CC(N)=O)NC(=O)[C@H](CC(N)=O)NC(=O)[C@H](CO)NC(=O)[C@H](CO)NC(=O)[C@H](Cc1c[nH]cn1)NC(=O)[C@@H](NC(=O)[C@H](CC(C)C)NC(=O)[C@H](Cc1ccccc1)NC(=O)[C@H](CC(N)=O)NC(=O)[C@H](C)NC(=O)[C@H](CC(C)C)NC(=O)[C@H](CCCNC(=N)N)NC(=O)[C@H](CCC(N)=O)NC(=O)[C@@H](NC(=O)[C@H](C)NC(=O)[C@@H]1CSSC[C@H](NC(=O)[C@@H](N)CCCCN)C(=O)N[C@@H](CC(N)=O)C(=O)N[C@@H]([C@@H](C)O)C(=O)N[C@@H](C)C(=O)N[C@@H]([C@@H](C)O)C(=O)N1)[C@@H](C)O)C(C)C)C(=O)N[C@@H](CC(C)C)C(=O)N[C@@H](CO)C(=O)N[C@@H](CO)C(=O)N[C@H](C(=O)N[C@@H](CC(N)=O)C(=O)N[C@H](C(=O)NCC(=O)N[C@@H](CO)C(=O)N[C@@H](CC(N)=O)C(=O)N[C@H](C(=O)N[C@@H](Cc1ccc(O)cc1)C(=O)O)[C@@H](C)O)C(C)C)[C@@H](C)O [deamidated amylin],without affecting cell number or viability,–,–,–,–,–,–,–,–,–,–,–,–,–
"amylin (KCNTATCATQRLANFLVHSSNNFGAILSSTNVGSNTY-NH2; cysteine pairing not given here; UniProt P10997 34-70, looked up)",–,marked hypocalcaemia,"less than for calcitonin, but significantly greater than those observed with CGRP",marked lowering of plasma calcium,30 min,≤ 30 min,comparably potent to human calcitonin,evoked neither of these responses,evoked neither of these responses,inhibited osteoclast motility,marked reduction,without affecting cell number or viability,more potent than CGRP,less potent than human calcitonin by about an order or magnitude
calcitonin [reference compound],–,–,–,–,–,–,–,caused cell retraction,elevated cytosolic calcium,inhibited osteoclast motility,–,–,–,–
